Experimental data as given in patent US20230263754A1, “SOLID DISPERSIONS AND PARTICLES AND METHODS FOR CONTROLLED-RELEASE OF LIPID-SOLUBLE OR DISPESIBLE ACTIVES” (YISSUM RESEARCH DEVELOPMENT COMPANY OF THE HEBREW …, priority 2020, published 2023).
Values belong to the compound of their own block, whether it stands above or below them.

Experiments:
Format in all cases: physicochemical
[1] = Weight loss of DEET loaded microparticles at accelerated temperature; conditions: 30% w/w DEET loaded microparticles, 1:10 SiO2-NH2:hydrogenated vegetable oil, accelerated temperature 50° C., 1 h
Method: Drug loading: DEET insect repellent 30% (w/w): 30% w/w of DEET was loaded into the microparticles. The selection of the 30% drug content was based on the dissolving the DEET into the molten oil and then cooled down. The DEET loading was examined for 1:1, 1:2, 1:10 and 1:20 ratio SiO2-NH2:hydrogenated vegetable oil. The DEET loaded particles were tested by weight loss in the DEET loaded 1:10 ratio was examined. Accelerated temperature of 50° C. was used. The weight sample was heated to […] and monitored the weight loss for 1 h. 2% decrease in the weight loss of the DEET loaded microparticles was observed.

[2] = Fluazinam release from microparticles immersed in water; conditions: hydrogenated vegetable oil particles decorated with modified silica nanoparticles, about 20 microns, room temperature
[3] = Encapsulation efficiency and loading capacity of solid lipid microspheres (UV after dissolving in chloroform)
Method: The standard curves were constructed in a concentration range of 3-70 µg/mL in 10 mM PBS with R^2 value of 0.9993 and in a concentration range of 15-800 µg/mL in chloroform with R^2 value of 0.9935.
Encapsulation efficiency is percentage of drug encapsulated in the microspheres relating to initial quantity used. 10 mg of microspheres were dissolved in 4 mL of chloroform. The absorbance of the drugs was measured using a UV-VIS spectrophotometer after appropriate dilution in order to reach calibration curve concentrations. The measured absorbance was then converted to the amount of drug by using standard calibration curve.
The loading capacity is usually expressed as the ratio of the weight of entrapped drug and the total weight of the lipid and coating particles in percentage.
Drug entrapment efficiency is calculated in order to determine the amount of drug that is actually retained in the microparticles related to the amount of drug that was mixed with lipid before particles formation, and usually expressed as a percentage.

[4] = In vitro drug release from beeswax microspheres (Example 6)
Method: 10 mg of microspheres were mixed with 5 mL of H2O or buffer and placed in the incubator. Three samples of each formulation were run at same conditions. A 3 mL samples were withdrawn at predetermined time intervals and an equal volume of fresh dissolution medium was replaced.
In vitro drug release for the obtained microspheres was studied in 5 ml of 10 mM buffer phosphate solution, pH 7.4 or in ddH2O at 37° C.

[5] = Release of drugs from Pickering particles in phosphate buffer (Example 3); conditions: for release behaviour from the Pickering particles in the release medium: FIGS. 6, buffer medium; for time within which almost all the drug was released: 1% (w/w) drug loaded Pickering dispersion, aqueous solution, room temperature
Method: Release of drugs from particles: Standard curve of drug was prepared in 10 mM phosphate buffer at pH 7.2. 10 mg of drug loaded lyophilized Pickering particles were added to 2 mL of buffer and the periodic isolated solution was analyzed by UV. The release was examined at room temperature. This was done in purpose to examine the drug release properties from the Pickering particles. The analysis of initial 30 min of release is considered as the burst release of drugs from the particles (FIGS. 6).
Release of ibuprofen from 1% (w/w) drug loaded Pickering dispersion. The release of ibuprofen was monitored by UV at the wavelength of 223 nm.
Release of ketoprofen from 1% (w/w) drug loaded Pickering dispersion. Standard curve of ketoprofen was prepared in 10 mM phosphate buffer at pH 7.2 at wavelength of 260 nm.
The particles were checked for the drug release with time. FIGS. 6 provides the release of the drug loaded Pickering particles in a buffer medium.

SMILES: CCN(CC)C(=O)c1cccc(C)c1 [DEET]
decrease in weight (weight loss) [1]: 2%

SMILES: O=[N+]([O-])c1cc(C(F)(F)F)c(Cl)c([N+](=O)[O-])c1Nc1ncc(C(F)(F)F)cc1Cl [Fluazinam]
release behaviour in water [2]: constantly releasing

SMILES: CCN(CC)CC(=O)Nc1c(C)cccc1C [Lidocaine]
entrapment efficacy ([3]; Lidocaine in Beeswax-Chitosan particles (pH 6.5)): 49% | drug released in initial burst, first 24 h ([4]; Lidocaine from Beeswax-Chitosan microspheres, 10 mM phosphate buffer pH 7.4, 37° C.): about 70%

Now from value to compound:

release behaviour from the Pickering particles in the release medium [5]: sustained release
SMILES: CN(C)CCC[C@@]1(c2ccc(F)cc2)OCc2cc(C#N)ccc21 [escitalopram]

time within which almost all the drug was released [5]: ≤ 30 min | release behaviour from the Pickering particles in the release medium [5]: sustained release | loading capacity ([3]; Ibuprofen in Beeswax-Starch MSs, average of three experiments): 15.7% | entrapment efficiency ([3]; Ibuprofen-loaded microspheres from beeswax and starch): 71% | time during which most of the drug was released ([4]; Ibuprofen from Beeswax-Starch MSs, PBS pH 7.4, 37° C.): 4 days | further continuation of release in water compared with buffer ([4]; Ibuprofen from Beeswax-Starch MSs, ddH2O, 37° C.): 7 days
SMILES: CC(C)Cc1ccc(C(C)C(=O)O)cc1 (stereo not drawn) [ibuprofen]

time within which almost all the drug was released [5]: ≤ 30 min
SMILES: CC(C(=O)O)c1cccc(C(=O)c2ccccc2)c1 (stereo not drawn) [ketoprofen]
